Data set [1] deals with collagen solution (sCMF, sonicated collagen microfiber). As to the kind of experiment: Transparentizing ability in collagen model system (transmittance at 600 nm). As to conditions: for transparentizing ability: screening in collagen (sCMF) solution; for transmittance: room temperature, 2 hours. How it is done:
Since collagen is most abundant in biological tissue, a collagen solution was used as a model of the biological tissue to screen various compounds for their transparentizing ability. The outline of the screening experiment is as follows. Aqueous solutions of test compounds were added to multi-well plates containing aqueous solutions of sCMF (sonicated collagen microfiber) and allowed to stand at room temperature for a certain period of time, and subsequently, apparent transparency and transmittance at 600 nm were measured. 100 μL of 100 wt % AMP aqueous solution (refractive index: 1.43), 100 wt % CMP aqueous solution (refractive index: 1.42), 100 wt % TMP aqueous solution (refractive index: 1.41) or 25 wt % poly A aqueous solution (refractive index: 1.37) were added. The molecular weight of poly A was 100 to 500 kDa. Distilled water was added for a control. The resultant was allowed to stand at room temperature for 2 hours, and then the absorbance at 600 nm was measured with a plate reader (Synergy HTX). The obtained absorbance was substituted into an equation according to the Lambert-Beer formula to calculate the transmittance. 100 μL of 0.1 wt %, 0.5 wt %, 1 wt %, and 5 wt % sCMF aqueous solutions were placed in a 96-well plate, and 100 μL of 10 wt % (refractive index: 1.35), 25 wt % (refractive index: 1.38), 50 wt % (refractive index: 1.39), and 100 wt % (refractive index: 1.43) AMP aqueous solutions were added. After allowing the obtained samples to stand at room temperature for 2 hours, an absorbance at 600 nm was measured with a plate reader (Synergy HTX). The obtained absorbance was substituted into an equation according to the Lambert-Beer formula to calculate the transmittance.

The subject of data set [2] is human skin fibroblasts. As to the kind of experiment: Cell survival rate after transparentization treatment (trypan blue). The class given is cell-based. How it is done:
The cell survival rates in the transparentization using AMP, ADP, ATP, CMP, TMP, fructose, glucose, trehalose, sucrose, antipyrine, RapiClear 1.52, and poly A were examined. 1.0×10^5 human skin fibroblasts were seeded in a 24-well plate and cultured in DMEM medium. The next day, after washing with PBS, 100 μL of 100 wt % AMP aqueous solution, 100 wt % ADP aqueous solution, 100 wt % ATP aqueous solution, 100 wt % CMP aqueous solution, 100 wt % TMP aqueous solution, 100 wt % fructose aqueous solution, 100 wt % glucose aqueous solution, 100 wt % trehalose aqueous solution, 100 wt % sucrose aqueous solution, 100 wt % antipyrine aqueous solution, RapiClear 1.52 aqueous solution, or 25 wt % poly A aqueous solution was added, and the resultant was incubated at 37° C. for 30 minutes. Distilled water was added for a control. After the incubation, 0.1% trypsin was directly added, and the resultant was incubated for 5 minutes. Cell dissociation was confirmed, 3 mL of DMEM medium was added, and then the resultant was collected into a 15-mL centrifuge tube, and centrifuged (1000 rpm, 5 minutes, 20° C.). The supernatant was aspirated and 100 μL of DMEM medium was added. 10 μL was separated from the resultant and placed in an Eppendorf tube, and 10 μL of trypan blue solution was added thereto. Then, 10 μL was separated and the number of cells was counted with an automated cell counter.

Data set [3] can be described thus: Refractive index of aqueous solutions. The class given is physicochemical.
Data set [4] has as its system living three-dimensional tissue model. As to the kind of experiment: Cell survival rate in living three-dimensional tissue model (trypan blue). The class given is cell-based, human. How it is done:
(§1) A transparentization was performed on a living three-dimensional tissue model. 60 wt % AMP was used as a transparentizing agent, and RapiClear 1.52 and 61 wt % fructose were used for comparison. The experimental procedure was the same as that of Example 4, except that the paraformaldehyde fixation described in step (6) was not performed.
Further after 30, 60, and 90 minutes of the transparentization treatment in the same experimental system as described above, the tissue was disintegrated with proteinase K and collagenase (1:1) and subjected to trypan blue staining to count the number of viable cells. […] The transparentization treatment with AMP had no significant effect on the cell survival rate (a cell survival rate of 92%). […] The cell survival rate was as high as 92% and 90% after the 30-minute and 60-minute transparentization treatments, respectively. It was confirmed that a significant number of cells survived even after the 90-minute transparentization treatment (a cell survival rate of 45%).

Data set [5] has the same test system. As to the kind of experiment: Transparentization test (2) on living three-dimensional tissue model, confocal observation. The class given is cell-based, human. The following applies: 60 wt % AMP, 30 minutes. The method, then: as §1
The upper part of FIG. 5 is images immediately before the treatment (0 minutes), in which the left panel is an image observed in a direction perpendicular to the dish, and the right panel is an image observed in a direction horizontal to the dish. The lower part of FIG. 5 is images immediately after the treatment (30 minutes), in which the left panel is an image observed in a direction perpendicular to the dish, and the right panel is an image observed in a direction horizontal to the dish. By the transparentization treatment with AMP, the central portion of the tissue was seen so that the deep part up to 200 μm could be observed.

Data set [6] has as its system three-dimensional tissue model (human skin fibroblasts, human umbilical vein endothelial cells). Description: Transparentization test (1) on fixed three-dimensional tissue model. The class given is cell-based. The following applies: 100 wt % AMP, 37° C., 30 minutes; paraformaldehyde-fixed tissue. How it is done:
(1) A solution containing fibrinogen at a concentration of 2 mg/100 μL, CMF at a concentration of 6 mg/100 μL, and thrombin at a concentration of 1 unit/100 μL using DMEM was prepared.
(2) 1.0×10^5 of human skin fibroblasts, 5.0×10^4 of human umbilical vein endothelial cells, 18 μL of a mixed medium of DMEM and EGM-2, and 2 μL of a thrombin solution were placed in an Eppendorf tube to prepare a cell suspension.
(3) The fibrinogen solution prepared in (1) was combined with a CMF solution, and 40 μL from 200 μL in total of the resulting solution was taken out and added to the cell suspension prepared in (2).
(4) The cell suspension prepared in (3) was placed in a glass bottom dish to prepare a 30-μL drop.
(5) After the drop was incubated for 2 hours, 2 mL of a mixed medium of DMEM and EGM-2 was added.
(6) The drop was cultured at 37° C. for 1 week, washed with PBS, and then fixed with paraformaldehyde for 15 minutes.
(7) The fixed tissue was subjected to CD31 immunostaining and DAPI staining.
(8) A transparentization treatment was performed with 100 wt % AMP at 37° C. for 30 minutes.

The mark [7] stands for this setting: human skin fibroblasts, 100 wt % aqueous solutions (RapiClear 1.52 aqueous solution), 37° C., 30 minutes, n = 3.
Where [8] appears, read: 600 nm, 100 wt % aqueous solution added to sCMF solution.

A word on the refractive index: it is a measure of how strongly the sample bends light.

Marks after values point to notes of the source that are not given here.

`Nc1ncnc2c1ncn2[C@@H]1O[C@H](COP(=O)(O)OP(=O)(O)OP(=O)(O)O)[C@@H](O)[C@H]1O` [ATP, adenosine triphosphate]: the transparentizing ability entry in data set [1] is reported as “high transparentizing ability”. For the same molecule, in data set [2] (ATP transparentization treatment), the “cell survival rate (in words)” value is “low”. Also, the “Survival rate (%)” value in data set [2] (setting [7]) came to 26%.
Molecule `Nc1ccn([C@@H]2O[C@H](COP(=O)(O)O)[C@@H](O)[C@H]2O)c(=O)n1` [CMP, cytidine monophosphate] had a refractive index in data set [3] (100 wt % aqueous solution) of 1.42. For the same molecule, the transmittance in data set [1] (setting [8]) came out at 45.2%. The transparentizing ability result in data set [1] is “high transparentizing ability”. The “Survival rate (%)” value in data set [2] (human, 30 min, 100 wt %) came to 53%.
The molecule `Cc1cn([C@@H]2O[C@H](COP(=O)(O)O)[C@@H](O)[C@H]2O)c(=O)[nH]c1=O` [TMP, 5-methyluridine monophosphate] showed a refractive index in data set [3] (100 wt % aqueous solution) of 1.41. Besides, in data set [1] (setting [8]), the transmittance is on record as 31.6%. Also, the transparentizing ability entry in data set [1] is “high transparentizing ability”. Moreover, the “Survival rate (%)” value in data set [2] (human, 30 min, 100 wt %) worked out at 42%.
For `O=C(CO)[C@@H](O)[C@H](O)[C@H](O)CO` [Fructose, fructose, reference compound], the cell survival rate in data set [4] (30 minutes of treatment, 60 wt % AMP, RapiClear 1.52, 61 wt % fructose) is 22%. The “Survival rate (%)” value in data set [2] (setting [7]) was determined as 6%.
Take poly A: in data set [3] (25 wt % aqueous solution), the refractive index is listed as 1.37. Further, the transmittance in data set [1] (600 nm, 25 wt % aqueous solution added to sCMF solution) is reported as 69.0%. The transparentizing ability result in data set [1] was “high transparentizing ability”. In addition, the “effect on the survival rate (in words)” value in data set [2] was “little effect on the survival rate”.
Turning to `Nc1ncnc2c1ncn2[C@@H]1O[C@H](COP(=O)(O)O)[C@@H](O)[C@H]1O` [AMP, adenosine monophosphate], the “observable depth of tissue” value in data set [5] is “up to 200 μm”. The cell survival rate turned out to be 92% in data set [4] (human, 30 min); 90% in data set [4] (human, 60 min, 60 wt %); 45% in data set [4] (human, 90 min, 60 wt %). The refractive index was 1.35 in data set [3] (10 wt % aqueous solution), 1.38 in data set [3] (25 wt % aqueous solution), 1.39 in data set [3] (50 wt % aqueous solution) and 1.43 in data set [3] (100 wt % aqueous solution). Further, the “transparentization of tissue (naked eye)” value in data set [6] was “completely transparentized”. Further, the “effect of AMP concentration on transmittance” value in data set [1] (10-100 wt % AMP, 0.1-5 wt % sCMF, 600 nm, 2 hours room temperature) is “as the AMP concentration was higher, the transmittance was higher”. Also, the transmittance in data set [1] (setting [8]) amounted to 75.6%. The transparentizing ability result in data set [1] is given as “high transparentizing ability”. For the same molecule, in data set [2] (human, 30 min, 100 wt %), the “Survival rate (%)” value is listed as 92* %.
For `Cc1cc(=O)n(-c2ccccc2)n1C` [Antipyrine, antipyrine, reference compound], the “Survival rate (%)” value in data set [2] (setting [7]) was determined as 33%.
As for `Nc1ncnc2c1ncn2[C@@H]1O[C@H](COP(=O)(O)OP(=O)(O)O)[C@@H](O)[C@H]1O` [ADP, adenosine diphosphate], the transparentizing ability result in data set [1] is given as “high transparentizing ability”. For the same molecule, the “Survival rate (%)” value in data set [2] (human, 30 min, 100 wt %) is reported as 87* %.
With `OC[C@H]1O[C@@](CO)(O[C@H]2O[C@H](CO)[C@@H](O)[C@H](O)[C@H]2O)[C@@H](O)[C@@H]1O` [Sucrose, sucrose, reference compound], the “Survival rate (%)” value in data set [2] (human, 30 min, 100 wt %) came to 14%.
The same measure, in the same setting: the value for `OC[C@H]1O[C@H](O[C@H]2O[C@H](CO)[C@@H](O)[C@H](O)[C@H]2O)[C@H](O)[C@@H](O)[C@@H]1O` [Trehalose, trehalose, reference compound] was 25%.

The values are drawn from patent US20220341825A1, “CELL-COMPATIBLE TISSUE CLARIFYING COMPOSITION” (OSAKA UNIVERSITY, priority 2019, published 2022).
